Measured values as given in patent US20250009634A1, “LIQUID COMPOSITION OF CERAMIDES AND PALMITIC ACID AMIDES” (Unifarco S.p.A., priority 2021, published 2025).

Source text: The samples were made in the standard quantity of 50 g, sufficient to perform the solubilisation and stability tests. The concentration ranges of the investigated actives and the sample preparation methods were established after a critical reading of the technical data sheets of each raw material.

Row | Structure (SMILES) | individual solubilisation in the solubilising agent
1 | CCCCCCCCCCCCCCCC(=O)NC(C)C [isopalmide, N-isopropyl-palmitoyl amide] | possible to obtain the individual solubilisation
2 | CCCCCCCCCCCCCCCC(=O)NCCO [PMEA, palmitoylethanolamide] | possible to obtain the individual solubilisation
